Paper PMC8381248 (Frontiers in Pharmacology, 2021)
Values joined by “and” are separate entries in the source; they are usually repeats but may differ in a detail not shown here. Equal values may be shown once. Read-outs that look alike come from different tables or passages of the source.

Experiments:
[1] = Pharmacokinetic study in rat plasma after intravenous and oral administration; type: in vivo, Sprague-Dawley (SD) rats; settings: for Cmax / AUC(0-t) / Tmax / AUC(0-inf) / MRT inf / Cl_pred / HL_Lambda_z / Vz_pred: rat plasma; for AUC(0-inf): read-out: AUCINF_pred; for MRT inf: read-out: MRTINF_pred
Method: (§1) Eighteen male SD rats were housed in the barrier rodent facilities to acclimatize for a week in animal quarters, which had air conditioning and an automatically controlled photoperiod of 12 h of light daily. Rats had free access to standard chow diet and water until 12 h prior to the beginning of the experiment, at which time only water was accessed freely. The rats were randomly divided into six groups, with three rats in each group.
(§2) A series of calibration standard working solutions (20.0, 10.0, 2.0, 1.0, 0.2, 0.04, and 0.02 μg/ml) was prepared freshly by diluting the stock solution stepwise using ACN-water (70:30, v/v). […] The IS working solutions of 200 ng/ml of tolbutamide or 50 ng/ml of diclofenac sodium were prepared by dilution of the stock standard solution with acetonitrile solution. All the solutions were stored at 4°C and brought to room temperature before use.
(§3) QC samples (3, 40, 800, and 1,600 ng/ml) were prepared separately. For PDG urine samples, the calibration standards were prepared by spiking 5 μL of the appropriate standard working solutions of PDG to 95 μL blank rat urine to prepare the final urine concentration of PDG ranging from 1 ng/ml to 2000 ng/ml. QC samples (3, 40, 800, and 1,600 ng/ml) were prepared separately. […] QC samples (15, 30, 400, and 1,600 ng/ml) were prepared separately.
Blood samples were collected via orbital venous plexus puncture into heparinized microfuge tubes at intervals of 0, 0.083, 0.25, 0.5, 1, 2, 4, 8, 10, 24, and 30 h after administration. The plasma samples were obtained by centrifuging the blood samples at 6,000 rpm for 10 min at 4°C and storing them at −20°C until further analysis. For the plasma calibration standards, QC plasma samples, and the testing plasma samples, 40 µL of the plasma samples were extracted with 120 µL of IS working solution (tolbutamide) by vortex mixing for 1 min and at 4°C centrifugation for 10 min at 13,000 rpm. The supernatant was separated and evaporated under a gentle stream of nitrogen. The residue was reconstituted with 120 µL of 30% ACN followed by vortex mixing. Then, the solutions were centrifuged at 13,000 rpm for 10 min at 4°C.
(§4) Linear gradient elution was performed with certain portions of 10 mM ammonium acetate-water solution containing 0.1% formic acid (mobile phase A) and methanol (mobile phase B). The detailed conditions have been described in Support Materials (Supplementary Table S5).
In the ADME properties and pharmacokinetics studies, data are presented as mean ± standard deviation (SD). Statistically significant differences were analyzed by one-way ANOVA or Student’s t-test. The level of significance was set at p < 0.05. The LC/MS/MS data were collected and analyzed by Analyst 1.6.1 (AB Sciex). Pharmacokinetic analyses were performed by non-compartmental methods using Phoenix WinNolin version 6.3 (Pharsight Corporation, Mountain View, CA, United States).

[2] = Urinary excretion study after intravenous administration; type: in vivo, Sprague-Dawley (SD) rats; settings: IV 5 mg/kg; for excretion amount in urine: rat
Method: as §1, §2, §3
Urine samples were collected while the rats remained isolated in metabolic cages at intervals of 0, 2, 4, 8, 24, and 30 h after administration, and the volumes of the urine were measured. The urine samples were also stored at −20°C before tested by LC-MS/MS. For the urine calibration standards, QC urine samples, and the testing urine samples, 100 µL of the urine samples were extracted with 300 µL of methyl tert-butyl ether (MTBE) by vortex mixing for 1 min and centrifuged at 4°C for 10 min at 13,000 rpm. Then, 200 µL of the supernatant was separated and evaporated under a gentle stream of nitrogen. The residue was reconstituted with 120 µL of 30% ACN with 5 µL of IS working solution ([…]), followed by vortex mixing for 10 min.
as §4

[3] = male, Sprague-Dawley, IV 5 mg/kg, n = 3
[4] = male, Sprague-Dawley, PO 40 mg/kg, n = 3

COc1cc(C2OCC3C(c4ccc(OC5OC(CO)C(O)C(O)C5O)c(OC)c4)OCC23)ccc1OC1OC(CO)C(O)C(O)C1O (single isomer, unassigned; (+)) [PDG, (+)-1-pinoresinol 4,4′-di-O-β-D-glucopyranoside]
bioavailability ([1]; male, Sprague-Dawley, plasma, rat, from AUClast of IV 5 mg/kg and PO 40 mg/kg, read-out: absolute oral bioavailability (F%)): ~0.19% | Cmax ([1]; male, Sprague-Dawley, rat, plasma, iv, 5 mg/kg, IV 5 mg/kg, n = 3, read-out: Cmax): 13300 ng/mL | Cmax ([1]; male, Sprague-Dawley, rat, plasma, iv, 5 mg/kg, IV 5 mg/kg, ng/ml value expressed in molar units, read-out: Cmax): 19.6 µM | Cmax ([1]; male, Sprague-Dawley, rat, plasma, po, 40 mg/kg, PO 40 mg/kg, n = 3, read-out: Cmax): 45.3 ± 37.5 ng/mL | Cmax ([1]; male, Sprague-Dawley, rat, plasma, po, 40 mg/kg, PO 40 mg/kg, ng/ml value expressed in molar units, read-out: Cmax): 0.0665 µM | AUC(0-t) [1, 3]: 7470 ng·h/mL | Tmax [1, 3]: 6 min | AUC(0-inf) [1, 3]: 7470 ng·h/mL | MRT inf [1, 3]: 30.6 ± 5.4 min | AUC(0-t) [1, 4]: 113 ± 122 ng·h/mL | Tmax [1, 4]: 30 min | AUC(0-inf) [1, 4]: 121 ± 129 ng·h/mL | MRT inf [1, 4]: 114 ± 57 min | Cl_pred ([1]; IV 5 mg/kg, n = 3): 0.69 ± 0.15 L/h/kg | HL_Lambda_z ([1]; IV 5 mg/kg, n = 3): 2.0 ± 0.5 h | Vz_pred ([1]; IV 5 mg/kg, n = 3): 1.98 ± 0.43 L/kg | Cmax ([1]; IV 5 mg/kg, n = 3, 5 mg/kg): 13,328.57 ± 1,625.4 ng/ml | Cl_pred ([1]; PO 40 mg/kg, n = 3): 653.9 ± 492.6 L/h/kg | Vz_pred ([1]; PO 40 mg/kg, n = 3): 777.0 ± 392.4 L/kg | HL_Lambda_z ([1]; PO 40 mg/kg, n = 3, 40 mg/kg): 1.15 h and 1.15 ± 0.75 h | cumulative urinary excretion, % of the dose ([2]; rat urine, for 30 h): approximately 78.24% | Cumulative Excretion Amount ([2]; rat urine, within 30 h, n = 3): 807,789.5 ± 65,828.8 ng | excretion amount in urine ([2]; 0–2 h, n = 3): 503,669.8 ± 292,869.4 ng | excretion amount in urine ([2]; 2–4 h, n = 3): 274,878.3 ± 236,625.8 ng | excretion amount in urine ([2]; 4–8 h, n = 3): 989.1 ± 1,053.6 ng | excretion amount in urine ([2]; 8–24 h, n = 3): 2,596.9 ± 1776.4 ng | excretion amount in urine ([2]; 24–30 h, n = 3): 245.1 ± 173.0 ng | excretion amount in urine ([2]; Wash, n = 3): 25,410.3 ± 5,874.3 ng
